The values below come from the supplement of paper PMC11208160.
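Also: IS621 recombinase and bridge RNA in Escherichia coli cells.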

This series can be described thus: recombinant barcode read abundance after kanamycin selection (control-corrected) (log10(CPM+1)); higher = more efficient recombination; sequences stand for … in AGTGCAGAGAAAATCGGCCAGTTTTCTCTGCCTGCAGTCCGCATGCCGT…AGATTTATGCAGCGGACTGCCTTTCTCCCAAAGTGATAAACCGGACAGTATCATGGACCGGTTTTCCCGGTAATCCGTATTTGCAAGGTTGGTTTCACT; site = the 11-nt target. Here is the method:
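Pooled E. coli target-specificity screen for the IS621 bridge recombinase. Each library plasmid pairs an 11-nt target (CT core) with a bridge RNA whose target-binding loop (9-nt LTG + 4-nt RTG) is reprogrammed; the rest of the 177-nt WT IS621 bridge RNA scaffold is fixed. The plasmid is co-electroporated with a WT donor plasmid; recombinase is induced with 0.1 mM IPTG and recombinants are selected on kanamycin. Recombinant barcodes are sequenced, converted to CPM, averaged over two biological replicates and corrected by the unselected control CPM. Molecule = full bridge RNA written as DNA: LTG = specificity nt 1-9, RTG = reverse complement of specificity nt 8-11, in the WT scaffold.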
In the case of “AAGAAGCCTTGGGTTCTAACCTGTTGCCT (site GAGAAGCCTAG)”, the “recombinant barcode read abundance (log10)” value was determined as 0.14.

With “AAGAAGCCTTGGGTTCTAACCTGTTGCCT (site TAGAAGCCTAG)”, the “recombinant barcode read abundance (log10)” value came out at 0.337. The value for “AAGAATACTTGGGTTCTAACCTGTTGCCT (site AAGAATACTAG)” was 1.16; that for “AAGAATACTTGGGTTCTAACCTGTTGCCT (site GAGAATACTAC)” was 0.011; that for “AAGACATCTTGGGTTCTAACCTGTTGCTT (site AAGACATCTAA)” was 1.19.

Turning to “AAGACATCTTGGGTTCTAACCTGTTGCTT (site TAGACATCTAT)”, the “recombinant barcode read abundance (log10)” value was determined as 0.24. For “AAGAGTCCTTGGGTTCTAACCTGTTGCGT (site AAAAGTCCTAG)”, the “recombinant barcode read abundance (log10)” value was 0.423. The value for “AAGAGTCCTTGGGTTCTAACCTGTTGCGT (site AAGAGTCCTAC)” was 2.55.

Consider “AAGATACCTTGGGTTCTAACCTGTTGCTT (site AAGATACCTAA)”, for which the “recombinant barcode read abundance (log10)” value turned out to be 1.29. In the case of “AAGATACCTTGGGTTCTAACCTGTTGCTT (site AAGATACCTCA)”, the “recombinant barcode read abundance (log10)” value worked out at 0.36. As for “AAGATGTCTTGGGTTCTAACCTGTTGCTG (site AAGATGTCTCA)”, the figure is 1.74. As to “AAGATGTCTTGGGTTCTAACCTGTTGCTG (site TAGAAGTCTCA)”, the “recombinant barcode read abundance (log10)” value is 0.0558. The value for “AAGATTCCTTGGGTTCTAACCTGTTGCCT (site AAGATTCCTAG)” was 0.575; that for “AAGATTCCTTGGGTTCTAACCTGTTGCCT (site ACGATTCCTAG)” was 0.0379. With “AAGATTCCTTGGGTTCTAACCTGTTGCCT (site AGGATTCCTAG)”, the “recombinant barcode read abundance (log10)” value was found to be 0.111. For the sequence “AAGATTCCTTGGGTTCTAACCTGTTGCCT (site ATGATTCCTAG)”, the “recombinant barcode read abundance (log10)” value is 0.217. As for “AAGCATGCTTGGGTTCTAACCTGTTGCTA (site AAGCATGCTTA)”, the figure is 0.883; as for “AAGCATGCTTGGGTTCTAACCTGTTGCTA (site CTCTTAACTCC)”, 0.0074. “AAGCCAACTTGGGTTCTAACCTGTTGCCT (site AAGCAAACTAG)”: the “recombinant barcode read abundance (log10)” value was found to be 0.294. With “AAGCCAACTTGGGTTCTAACCTGTTGCCT (site AAGCCAACTAG)”, the “recombinant barcode read abundance (log10)” value amounted to 1.19.

Turning to “AAGCCAACTTGGGTTCTAACCTGTTGCCT (site AAGCGAACTAG)”, the “recombinant barcode read abundance (log10)” value was 0.181. With “AAGCCAACTTGGGTTCTAACCTGTTGCCT (site AAGCTAACTAG)”, the “recombinant barcode read abundance (log10)” value amounted to 0.172.

Take “AAGCCCTCTTGGGTTCTAACCTGTTGCTT (site AAGACCTCTAA)”: the “recombinant barcode read abundance (log10)” value was found to be 0.144. For “AAGCCCTCTTGGGTTCTAACCTGTTGCTT (site AAGCCCTCTAA)”, the “recombinant barcode read abundance (log10)” value stood at 2.53. As for “AAGCCCTCTTGGGTTCTAACCTGTTGCTT (site AAGGCCTCTAA)”, the “recombinant barcode read abundance (log10)” value came out at 0. As for “AAGCCCTCTTGGGTTCTAACCTGTTGCTT (site AAGTCCTCTAA)”, the figure is 0.0167; as for “AAGCCTTCTTGGGTTCTAACCTGTTGCTG (site AAGCCTTCTCA)”, 1.68; as for “AAGCCTTCTTGGGTTCTAACCTGTTGCTG (site GAGCCTTCTCT)”, 0.236.

As for “AAGCGAACTTGGGTTCTAACCTGTTGCCT (site AAGCAAACTAG)”, the “recombinant barcode read abundance (log10)” value was determined as 0.274. With “AAGCGAACTTGGGTTCTAACCTGTTGCCT (site AAGCCAACTAG)”, the “recombinant barcode read abundance (log10)” value came out at 0.238. As to “AAGCGAACTTGGGTTCTAACCTGTTGCCT (site AAGCGAACTAG)”, the “recombinant barcode read abundance (log10)” value came to 2.07. For the sequence “AAGCGAACTTGGGTTCTAACCTGTTGCCT (site AAGCTAACTAG)”, the “recombinant barcode read abundance (log10)” value was determined as 0.319. Take “AAGCTAACTTGGGTTCTAACCTGTTGCCT (site AAGCAAACTAG)”: the “recombinant barcode read abundance (log10)” value was determined as 0.044.

In the case of “AAGCTAACTTGGGTTCTAACCTGTTGCCT (site AAGCCAACTAG)”, the “recombinant barcode read abundance (log10)” value is 0.299. With “AAGCTAACTTGGGTTCTAACCTGTTGCCT (site AAGCGAACTAG)”, the “recombinant barcode read abundance (log10)” value turned out to be 0.248. Consider “AAGCTAACTTGGGTTCTAACCTGTTGCCT (site AAGCTAACTAG)”, for which the “recombinant barcode read abundance (log10)” value is 1.77.

Turning to “AAGGCCTCTTGGGTTCTAACCTGTTGCCA (site AAGGCCTCTAT)”, the “recombinant barcode read abundance (log10)” value turned out to be 0.0333.
